10 compounds from patent publication USRE47689E1, “Compounds for treating spinal muscular atrophy” (PTC Therapeutics, Inc., priority 2011, dated 2019) can be followed below.

The test system of test [1] is SMN2 minigene (full length SMN2 minigene mRNA containing SMN2 exon 7). In words: SMN2 minigene mRNA splicing RT-qPCR assay in cultured cells. Type of test: cell-based, human. The note with it: HEK293H cells stably transfected with SMN2-A minigene, 24 hours, 7-point concentration curve, 1.5-fold relative to vehicle-treated cells; for EC (1.5-fold): Homo sapiens, HEK293-H, read-out: EC1.5x for production of full length SMN2 mRNA. Here is the method:
The reverse transcription-quantitative PCR-based (RT-qPCR) assay is used to quantify the level of the full length SMN2 minigene mRNA containing SMN2 exon 7 in a HEK293H cell line stably transfected with said minigene and treated with a test compound.
Protocol. HEK293H cells stably transfected with the SMN2-A minigene construct described above (10,000 cells/well) are seeded in 200 μL of cell culture medium (DMEM plus 10% FBS, with 200 μg/mL hygromycin) in 96-well flat-bottom plates and the plate is immediately swirled to ensure proper dispersal of cells, forming an even monolayer of cells. Cells are allowed to attach for at least 4-6 hours. […] A solution of test compound (1 μL, 200× in DMSO) is added to each cell-containing well and the plate is incubated for 24 hours in a cell culture incubator (37° C., 5% CO2, 100% relative humidity). 2 replicates are prepared for each test compound concentration. The cells are then lysed in Cells-To-Ct lysis buffer and the lysate is stored at −80° C.
The combination of these three oligonucleotides detects only SMN1 or SMN2 minigenes (RT-qPCR) and will not detect endogenous SMN1 or SMN2 genes.
The SMN forward and reverse primers are used at final concentrations of 0.4 μM.
The SMN2-minigene GAPDH mix (15 μL total volume) is prepared by combining 7.5 μL of 2×RT-PCR buffer, 0.4 μL of 25×RT-PCR enzyme mix, 0.75 μL of 20×GAPDH primer-probe mix, 4.0075 μL of water, 2 μL of 10-fold diluted cell lysate, 0.06 μL of 100 μM SMN forward primer, 0.06 μL of 100 μM SMN reverse primer, and 0.225 μL of 100 μM SMN probe.
PCR is carried out at the following temperatures for the indicated time: Step 1: 48° C. (15 min); Step 2: 95° C. (10 min); Step 3: 95° C. (15 sec); Step 4: 60° C. (1 min); then repeat Steps 3 and 4 for a total of 40 cycles.
Each reaction mixture contains both SMN2-A minigene and GAPDH primers/probe sets (multiplex design), allowing simultaneous measurement of the levels of two transcripts.
Two SMN spliced products are generated from the SMN2 minigene. The first spliced product containing exon 7, corresponding to full length SMN2 mRNA, is called SMN2mini FL. The second one lacking exon 7 is called SMN2mini Δ7.
The amplification efficiency E is calculated from the slope of the amplification curve for SMN2mini FL and GAPDH individually. The abundances of SMN2mini FL and GAPDH are then calculated as […], where Ct is the threshold value for each amplicon. The abundance of SMN2mini FL is normalized to GAPDH abundance. The normalized SMN2mini FL abundance from test compound-treated samples is then divided by normalized SMN2mini FL abundance from vehicle-treated cells to determine the level of SMN2 FL mRNA relative to vehicle control.
An EC1.5x for production of full length SMN2 mRNA between >3 μM and ≤30 μM is indicated by one star (*), an EC1.5x between >1 μM and ≤3 μM is indicated by two stars (**), an EC1.5x between >0.3 μM and ≤1 μM is indicated by three stars (***), an EC1.5x between >0.1 μM and ≤0.3 μM is indicated by four stars (****) and an EC1.5x≤0.1 μM is indicated by five stars (*****).

The next test has as its system Smn protein. Briefly: Smn protein assay in cultured cells (SMN HTRF). Type of test: cell-based, human. The note with it: 48 hours; for EC1.5x (concentration giving 1.5-fold Smn protein increase): SMA Type 1 patient fibroblast cells (GM03813), 7-point concentration curve, SMN HTRF, concentration producing 1.5 times Smn protein vs DMSO vehicle control, read-out: EC1.5x for Smn protein expression; for maximum fold (Fold) increase of Smn protein: SMA patient fibroblast cells, 7-point concentration data, fold increase relative to vehicle control (SMN HTRF). Here is the method: The SMN HTRF (homogeneous time resolved fluorescence) assay is used to quantify the level of Smn protein in SMA patient fibroblast cells treated with test compounds.
Protocol. Cells are thawed and cultured in DMEM-10% FBS for 72 hours. Cells are trypsinized, counted and resuspended to a concentration of 25,000 cells/mL in DMEM-10% FBS. […] 1 μL of test compound solution is transferred to cell-containing wells and cells are incubated for 48 hours in a cell culture incubator (37° C., 5% CO2, 100% relative humidity). Triplicate samples are set up for each test compound concentration. After 48 hours, the supernatant is removed from the wells and 25 μL of the RIPA lysis buffer, containing protease inhibitors, is added to the wells and incubated with shaking at room temperature for 1 hour. 25 μL of the diluent is added and then 35 μL of the resulting lysate is transferred to a 384-well plate, where each well contains 5 μL of the antibody solution (1:100 dilution of anti-SMN d2 and anti-SMN kryptate in SMN reconstitution buffer). The plate is centrifuged for 1 minute to bring the solution to the bottom of the wells, then incubated overnight at room temperature. Fluorescence for each well of the plate at 665 nm and 620 nm is measured on an EnVision multilabel plate reader (Perkin-Elmer).
The normalized fluorescence signal is calculated for each sample, Blank and vehicle control well by dividing the signal at 665 nm by the signal at 620 nm. Normalizing the signal accounts for possible fluorescence quenching due to the matrix effect of the lysate. The ΔF value (a measurement of Smn protein abundance) for each sample well is calculated by subtracting the normalized average fluorescence for the Blank control wells from the normalized fluorescence for each sample well and then dividing this difference by the normalized average fluorescence for the Blank control wells. The resulting ΔF value for each sample well represents the Smn protein abundance from test compound-treated samples. The ΔF value for each sample well is divided by the ΔF value for the vehicle control wells to calculate the fold increase in Smn protein abundance relative to the vehicle control.
An EC1.5x for Smn protein expression between >3 μM and ≤10 μM is indicated by one star (*), an EC1.5x between >1 and ≤3 μM is indicated by two stars (**), an EC1.5x between >0.3 μM and ≤1 μM is indicated by three stars (***) and an EC1.5x≤0.3 μM is indicated by four stars (****).

`COCCNCCOc1ccc2cc(-c3cn4cc(C)nc(C)c4n3)c(=O)oc2c1` [Compound 960, 3-(6,8-dimethylimidazo[1,2-a]pyrazin-2-yl)-7-{2-[(2-methoxyethyl)amino]ethoxy}-2H-chromen-2-one]: the EC (1.5-fold) in test [1] is below 0.1 µM. Also, in the test with Smn protein, the EC1.5x (concentration giving 1.5-fold Smn protein increase) lay in the range of 1000 to 3000 nM; the “maximum fold (Fold) increase of Smn protein” value (from here on “maximum fold (Fold) increase”) was “*** (fold increase between >1.35 and ≤1.5)”.
`O=c1oc2cc(N3CCNCC3)ccc2cc1-c1cn2ccc(C(F)(F)F)cc2n1` [Compound 114, 7-(piperazin-1-yl)-3-[7-(trifluoromethyl)imidazo[1,2-a]pyridin-2-yl]-2H-chromen-2-one]: in test [1], the EC (1.5-fold) was below 0.1 µM. Besides, the “maximum fold (Fold) increase” value in the test on Smn protein was “** (fold increase between >1.2 and ≤1.35)”.
As to `Cc1cn2cc(-c3cc4ccc(N5C[C@H]6CCCN(C)[C@H]6C5)cc4oc3=O)nc2c(C)n1` [Compound 782, 3-(6,8-dimethylimidazo[1,2-a]pyrazin-2-yl)-7-[(4aR,7aR)-1-methyloctahydro-6H-pyrrolo[3,4-b]pyridin-6-yl]-2H-chromen-2-one], in test [1], the “EC1.5x for production of full length SMN2 mRNA” value is “***** (EC1.5x≤0.1 μM)”. In the test with Smn protein, the EC1.5x (concentration giving 1.5-fold Smn protein increase) was below 300 nM; the “maximum fold (Fold) increase” value was “**** (fold increase between >1.5 and ≤1.65)”.
With `Cc1cn2cc(-c3cc4ccc(N5CCNCC5)cc4oc3=O)ccc2n1` [Compound 677, 3-(2-methylimidazo[1,2-a]pyridin-6-yl)-7-(piperazin-1-yl)-2H-chromen-2-one], the EC (1.5-fold) in test [1] was below 0.1 µM. In addition, in the test with Smn protein, the EC1.5x (concentration giving 1.5-fold Smn protein increase) was below 300 nM; the “maximum fold (Fold) increase” value is “**** (fold increase between >1.5 and ≤1.65)”.
For `Cc1cn2cc(-c3cc4ccc(N5CCC6(CC5)CNC6)cc4oc3=O)nc2c(C)n1` [Compound 976, 7-(2,7-diazaspiro[3.5]non-7-yl)-3-(6,8-dimethylimidazo[1,2-a]pyrazin-2-yl)-2H-chromen-2-one], the EC (1.5-fold) in test [1] was below 0.1 µM. Further, in the test with Smn protein, the EC1.5x (concentration giving 1.5-fold Smn protein increase) was 1000 to 3000 nM; the “maximum fold (Fold) increase” value is “*** (fold increase between >1.35 and ≤1.5)”.
In the case of `Cc1cn2cc(-c3cc4ccc(N5CCC(C#N)CC5)cc4oc3=O)nc2c(C)n1` [Compound 974, 1-[3-(6,8-dimethylimidazo[1,2-a]pyrazin-2-yl)-2-oxo-2H-chromen-7-yl]piperidine-4-carbonitrile], in test [1], the EC (1.5-fold) is 3 to 30 µM. Besides, the “maximum fold (Fold) increase” value in the test with Smn protein was “** (fold increase between >1.2 and ≤1.35)”.
Regarding `COc1ccc(-c2cc3ccc(N4CCNC[C@@H]4C)cc3oc2=O)cc1OC` [Compound 472, 3-(3,4-dimethoxyphenyl)-7-[(2S)-2-methylpiperazin-1-yl]-2H-chromen-2-one], in test [1], the EC (1.5-fold) lay in the range of 1 to 3 µM. Moreover, the “maximum fold (Fold) increase” value in the test on Smn protein is given as “* (maximum fold increase of ≤1.2)”.
For the compound `Cc1cn2cc(-c3cc4ccc(C5CCN(C)CC5)cc4oc3=O)nc2c(C)n1` [Compound 748, 3-(6,8-dimethylimidazo[1,2-a]pyrazin-2-yl)-7-(1-methylpiperidin-4-yl)-2H-chromen-2-one], the EC (1.5-fold) in test [1] was below 0.1 µM. Further, in the test on Smn protein, the EC1.5x (concentration giving 1.5-fold Smn protein increase) was below 300 nM and the “maximum fold (Fold) increase” value is reported as “***** (fold increase >1.65)”.
With `C[C@H]1CN(c2ccc3cc(-c4cc5ccccn5c4)c(=O)oc3c2)CCN1` [Compound 565, 3-(indolizin-2-yl)-7-[(3S)-3-methylpiperazin-1-yl]-2H-chromen-2-one], the EC (1.5-fold) in test [1] lay within 1 to 3 µM. Besides, the “maximum fold (Fold) increase” value with Smn protein was “* (maximum fold increase of ≤1.2)”.
As to `Cc1nc2ccc(-c3cc4ccc(N5CCN(C)[C@@H](C)C5)cc4oc3=O)cc2s1` [Compound 776, 7-[(3S)-3,4-dimethylpiperazin-1-yl]-3-(2-methyl-1,3-benzothiazol-6-yl)-2H-chromen-2-one acetate (2:1)], the EC (1.5-fold) in test [1] lay in the range of 1 to 3 µM. In addition, the “maximum fold (Fold) increase” value in the test on Smn protein was “** (fold increase between >1.2 and ≤1.35)”.
